We go through eight molecules from patent EP0502205A1, “CHALCONE DERIVATIVE AND ULTRAVIOLET SCREENING COSMETIC” (NIPPON HYPOX LABORATORIES INCORPORATED, priority 1990, dated 1992).

The subject of data set [1] is lipid peroxidation reaction of liver microsome. The data set is described as follows: Cell protection activity test (inhibition of lipid peroxidation, thiobarbituric acid method). In kind it is biochemical, rat. To be noted: 37° C 20 minutes, n = 3 - 5; for Inhibition ratio 10^-5 concentration: 10 µM; for Inhibition ratio 10^-4M concentration: final concentration 10^-4M, 100 µM. The method, then:
Cell impairment caused by a radical reaction of an organic compound is known as one of optical affections on the skin.
First, rat liver microsome was obtained by a conventional method, and then, suspended in 1.15 % KCl to prepare a microsome suspension.
Then, the above microsome suspension in an amount of 2 mg as protein was added to a tris-HCl buffer (pH 7.4) containing NADPH (final concentration 0.2 mM), ADP (final concentration 1 mM) and FeCl₃ (final concentration 10 µM). And, 10 µl of a dimethylformamide (DMF) solution of a test compound was added so that the total amount was 1 ml, and the resultant mixture was warmed at 37° C for 20 minutes. The test compound was added such that the final concentration became 10⁻⁴M or 10⁻⁵M.
Thereafter, the amount of formed peroxidation lipid was measured by a thiobarbituric acid method. The inhibition activity of the test compound is expressed in terms of an inhibition ratio (%) in comparison with a control group. […] In addition, in the control group, 10 µl of DMF was used in place of 10 µl of the DMF solution of the test compound.

A short description of data set [2]: Ultraviolet light absorption maximum and absorbance in ethanol solution. The data set is classed as physicochemical. To be noted: for Absorbance 300 nm / Absorbance 350 nm / Absorbance UVmax: concentration of 10 μg/ml in an ethanol solution; for Absorbance UVmax: at UVmax; for UVmax: ultraviolet light absorption maximum.

Turning to `O=C(/C=C/c1ccccc1F)c1ccc(O)cc1O` [Example 3], in data set [1], the “Inhibition ratio 10^-5 concentration” value is listed as 90 % or more and the “Inhibition ratio 10^-4M concentration” value is on record as 90 % or more. In addition, in data set [2], the “Absorbance 300 nm” value was 0.70~0.85, the “Absorbance 350 nm” value is reported as 0.80~0.95, the “Absorbance UVmax” value is given as 0.80~1.10 and the UVmax is 320 nm.
Take `O=C(/C=C/c1ccc(C(F)(F)F)cc1)c1ccc(O)cc1O` [Example 5]: in data set [1], the “Inhibition ratio 10^-5 concentration” value was determined as 15% and the “Inhibition ratio 10^-4M concentration” value is 90 % or more. Also, in data set [2], the “Absorbance 300 nm” value is on record as 0.60~0.75, the “Absorbance 350 nm” value was 0.50~0.65, the “Absorbance UVmax” value was 0.60~0.80 and the UVmax is recorded as 305 nm.
Take `CCOc1ccccc1/C=C/C(=O)c1ccc(O)cc1O` [Example 7]: in data set [1], the “Inhibition ratio 10^-5 concentration” value is 90 % or more and the “Inhibition ratio 10^-4M concentration” value is recorded as 90 % or more. Moreover, in data set [2], the “Absorbance 300 nm” value was 0.55~0.70, the “Absorbance 350 nm” value is 0.85~1.10, the “Absorbance UVmax” value is listed as 1.10~1.30 and the UVmax was 365 nm.
Turning to `O=C(/C=C/c1ccccc1)c1ccc(O)cc1` [Example 8], in data set [1], the “Inhibition ratio 10^-5 concentration” value amounted to 64% and the “Inhibition ratio 10^-4M concentration” value is recorded as 90 % or more. For the same molecule, in data set [2], the “Absorbance 300 nm” value is 1.40~1.50, the “Absorbance 350 nm” value is 0.75~0.85, the “Absorbance UVmax” value is recorded as 1.80~2.10 and the UVmax is on record as 318 nm.
With `O=C(/C=C/c1ccc(Cl)cc1)c1ccc(O)cc1O` [Example 10], in data set [1], the “Inhibition ratio 10^-5 concentration” value is 32% and the “Inhibition ratio 10^-4M concentration” value is reported as 90 % or more. In data set [2], the “Absorbance 300 nm” value was 0.85~1.00, the “Absorbance 350 nm” value is reported as 1.15~1.30, the “Absorbance UVmax” value is 1.20~1.40 and the UVmax was determined as 322 nm.
Regarding `O=C(/C=C/c1ccc([N+](=O)[O-])cc1)c1ccc(O)cc1O` [Example 11], in data set [1], the “Inhibition ratio 10^-5 concentration” value is reported as 62% and the “Inhibition ratio 10^-4M concentration” value is on record as 90 % or more. In data set [2], the “Absorbance 300 nm” value is reported as 0.60~0.75, the “Absorbance 350 nm” value is 0.75~0.90, the “Absorbance UVmax” value is recorded as 0.80~0.90 and the UVmax was determined as 320 nm.
Turning to `O=C(/C=C/c1ccc2c(c1)OCO2)c1ccc(O)cc1` [Example 12], the “Inhibition ratio 10^-4M concentration” value in data set [1] was 90 % or more. In data set [2], the “Absorbance 300 nm” value is 0.30~0.45, the “Absorbance 350 nm” value is reported as 0.85~1.00, the “Absorbance UVmax” value is listed as 0.90~1.00 and the UVmax turned out to be 355 nm.
As to `O=C(/C=C/c1ccc(O)c(O)c1)c1ccc(O)cc1` [Example 13], in data set [1], the “Inhibition ratio 10^-5 concentration” value amounted to 84% and the “Inhibition ratio 10^-4M concentration” value is recorded as 90 % or more. In data set [2], the “Absorbance 300 nm” value is 0.35~0.50, the “Absorbance 350 nm” value is on record as 0.85~1.00, the “Absorbance UVmax” value was 1.00~1.15 and the UVmax is listed as 365 nm.
